For assay [1], the target named is T1, hFFA3 (Homo sapiens, UniProt O14843).
T1 sequence (O14843 1-346): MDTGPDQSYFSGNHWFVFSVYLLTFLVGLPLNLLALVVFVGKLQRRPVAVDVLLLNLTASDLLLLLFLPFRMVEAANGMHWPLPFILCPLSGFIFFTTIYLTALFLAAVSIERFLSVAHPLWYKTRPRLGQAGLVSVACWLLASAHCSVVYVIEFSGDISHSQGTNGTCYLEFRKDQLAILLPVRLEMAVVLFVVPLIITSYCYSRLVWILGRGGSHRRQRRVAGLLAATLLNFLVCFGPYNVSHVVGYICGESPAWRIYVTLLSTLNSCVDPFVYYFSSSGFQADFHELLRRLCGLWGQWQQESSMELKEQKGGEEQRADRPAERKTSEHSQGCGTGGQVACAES
Set-up: expressed in transfected cells; host or cells: Flp-In T-REx HEK293 (membranes); method as in PMID 24870406. The note with it: previously characterized; cited from earlier work.

Assay [2] addresses T1, hFFA3. Kind of assay: biochemical. As to conditions: for GTPγS pEC50: hFFA3, mean of ≥3 independent experiments ± standard error. As to the method: The ligands were initially screened in a human FFA3-dependent [^35S]GTPγS binding assay as this assay reflects receptor-mediated activation of Gi/o proteins and is known to generally correlate well with ligand affinity.[30] Analogues of particular interest were tested further in a cAMP inhibition assay as this is an important downstream effect of Gi-activation. […] It is furthermore performed in whole cells, is more downstream, includes G protein signal amplification, and therefore better reflects a more natural ligand–receptor response.
Membranes were isolated from Flp-In T-REx HEK293 cells treated with 100 ng/mL doxycycline to induce receptor expression. Cells were washed with ice-cold phosphate-buffered saline and removed from dishes by scraping before being centrifuged for 5 min at 4 °C, 3000 rpm. Pellets were resuspended in TE buffer (75 mM Tris–HCl, 5 mM EDTA; pH 7.5) with the addition of a protease inhibitor mixture (Roche Applied Science, West Sussex, UK). This was then homogenized with a 5 mL hand-held homogenizer and subsequently centrifuged at 1500 rpm for 5 min at 4 °C, from which the supernatant was collected and further centrifuged at 50 000 rpm for 30 min at 4 °C. The resulting pellet was resuspended in TE buffer, and the protein content was measured using a BCA protein assay kit (Pierce, Fisher Scientific, Loughborough, UK).
Reactions were initiated with the addition of [^35S]GTPγS at 50 nCi per tube; reactions were terminated after 1 h of incubation at 25 °C by rapid filtration through GF/C glass filters using a 24-well Brandel cell harvester (Alpha Biotech, Glasgow, UK). Unbound radioligand was removed from filters by washing three times with ice-cold wash buffer (50 mM Tris–HCl, pH 7.4, and 10 mM MgCl2), and [^35S]GTPγS binding was determined by liquid scintillation spectrometry.

The next assay addresses T2, hFFA3 E112A (Homo sapiens, UniProt O14843, E112A).
T2 sequence (O14843 1-346 E112A): T1 sequence (O14843 1-346) with E112A
Description: Potency at FFA3 mutant E112A. The format is cell-based. As to the method:
(§1) The previously published compound 1 was not affected by mutation of either R185A or R258A in the orthosteric binding site, and the compounds were therefore believed to be allosteric modulators. […] After the publication of the FFA1 crystal structure in complex with an allosteric agonist located in the TM region close to the intracellular site,[32] a homology model of hFFA3 was constructed using Modeller. […] Thus, additional docking of (R)-1 in this site were performed to find poses where Q131, but not R126, show a central role in binding. […] The narrow binding cavity around the core scaffold is in agreement with the restrained SAR observed for this series and the furan moiety pointing out of the binding cavity might explain the flexibility in substituents at this site (Figure 3c,d). Although Q131A impacts the potency of (R)-1 with high significance, the magnitude of the effect is lower than what would be generally expected for the removal of a hydrogen bond interaction; thus, additional studies are required to confirm the proposed binding site.

The target in a further assay is T3, hFFA3 R126A (Homo sapiens, UniProt O14843, R126A).
T3 sequence (O14843 1-346 R126A): T1 sequence (O14843 1-346) with R126A
Kind of assay: Potency at FFA3 mutant R126A. The format is cell-based. As to the method: as §1

In assay [3] the target is T1, hFFA3. Description: cell-based. The essentials:
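HEK293 Flp-In T-REx cells stably carrying FFA3-eYFP, expression induced overnight with doxycycline, 3000 cells/well; compounds co-incubated 1 h to inhibit 0.3 μM forskolin-induced cAMP, read with HTRF cAMP kit.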

For another assay, the target named is T4, hFFA3 Q131A (Homo sapiens, UniProt O14843, Q131A).
T4 sequence (O14843 1-346 Q131A): T1 sequence (O14843 1-346) with Q131A
Kind of assay: Potency at FFA3 mutant Q131A. The assay is classed as cell-based. As for the experimental part:
as §1

[4] abbreviates: efficacy relative to maximal response of propionate.

The source of these data is publication PMC7307922 (Journal of Medicinal Chemistry, 2020).

Where a chain is given by its changes, count along the chain named.

As to `CC1=C(C(=O)Nc2ccccc2C)C(c2ccccc2Br)C2=C(CCCC2=O)N1` (stereo not shown) [Compound 5], the “activity alone and with propionate” value on hFFA3 [1] was “inactive alone but to act as a PAM of propionate”. Moreover, the “GTPγS pEC50” value on hFFA3 [2] is “nr^e”.
With “propionate [Compound C3, reference compound]”, on hFFA3 E112A, the “effect of mutation E112A on potency” value is “did not affect”. Also, the “effect of mutation R126A on potency” value at hFFA3 R126A is “did not affect”. For the same compound, the “cAMP Emax” value at hFFA3 [3] (setting [4]) is 100. Also, the “cAMP pEC50” value at hFFA3 [3] (hFFA3, compound alone, mean of ≥3 independent experiments ± standard error) worked out at 4.93 ± 0.10. In addition, the “effect of mutation Q131A on potency” value on hFFA3 Q131A is given as “did not affect”. Also, on hFFA3 [2] (setting [4]), the “GTPγS Emax” value was 100. In addition, the “GTPγS pEC50” value on hFFA3 [2] is on record as 4.97 ± 0.08.
As for `CC1=C(C(=O)Nc2ccccc2C)[C@H](c2ccco2)C2=C(CCCC2=O)N1` [(R)-1], the “effect of mutation E112A on potency” value on hFFA3 E112A was “did not affect”. Moreover, at hFFA3 R126A, the “effect of mutation R126A on potency” value is given as “did not affect”. On hFFA3 [3], this compound gave an EC50 of 0.295 µM. In addition, the “reduction of potency by mutation Q131A” value at hFFA3 Q131A (p < 0.001) was over 3 fold.

In general, EC50 refers to the concentration needed to bring the measured effect to its halfway point. A lower EC50 goes with higher potency in that assay.
